In publication PMC8459971, “Evaluation of the hepatotoxicity of the novel GPR40 (FFAR1) agonist CPL207280 in the rat and monkey” (PLoS ONE, 2021):
“And” between values parts separate entries of the source, which are not always exact repeats. Identical values can stand only once.

Experiments:
[1] = Single-dose pharmacokinetics in rats (p.o. and i.v.); type: in vivo, rat
in vivo = details: for AUC(0-t): AUC24h (Mean); for AUC24h (Mean): both
[2] = Viability assay, human primary hepatocytes, RT-glo, 48 h; type: cell-based; details: human, primary human hepatocytes, sheet Fig1 panel C (primary human hepatocytes), 48 h, replicates, read-out: viability, normalized to DMSO-treated controls
Description: (§1) To study the viability of the liver cells, 5 × 10^3 HepG2 (ATCC®) or human primary cells (ThermoFisher Scientific, USA) were seeded in 100 μL of DMEM media (Gibco; Thermo Fisher Scientific, USA) supplemented with fetal bovine serum (FBS)- in a 96-well plate. […] The experiments were performed in triplicates.

[3] = system: human primary hepatocytes; assay: as above; type: cell-based; details: for viability, normalized to DMSO-treated controls: sheet Fig1 panel C (primary human hepatocytes), replicates, in % (unit assumed)
Description: as §1

BSEP = BSEP (Homo sapiens, UniProt O95342); assay: Vesicular transport inhibition assay, BSEP
Description: (§2) In the vesicular transport inhibition assay (for BSEP, MRP) compounds were incubated with membrane vesicle preparations and the probe substrate. Incubations were carried out in the presence of 4 mM ATP or AMP to distinguish between transporter-mediated uptake and passive diffusion into the vesicles. For MRP2 and MRP3, reactions were carried out in the presence of 2 mM glutathione. Compounds were added to the reaction mixture in 0.75 μL of solvent (1% of the final incubation volume). […] Reactions were initiated by the addition of 25 μL of 12 mM MgATP (or 12 mM AMP in assay buffer as a background control) and preincubated separately. Reactions were quenched by the addition of 200 μL of ice-cold washing buffer and immediate filtration via glass fiber filters mounted on a 96-well plate (filter plate). The filters were washed (5 × 200 μL of ice-cold washing buffer), dried, and the amount of substrate inside the filtered vesicles was determined by liquid scintillation counting.

MRP2 = MRP2 (Homo sapiens, UniProt Q92887); assay: Vesicular transport inhibition assay, MRP2; details: for Accumulation (counts per minute; CPM) with AMP / Accumulation (counts per minute; CPM) with ATP: MRP2;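 also: membrane vesicles with probe substrate plus 2 mM glutathione, incubated with 4 mM ATP or AMP (AMP as background control), vesicle-retained substrate measured by liquid scintillation counting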;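 as to Accumulation (counts per minute; CPM) with AMP: ATP 4 mM vs AMP background separates transporter uptake from diffusion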;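 as to Accumulation (counts per minute; CPM) with ATP: ATP 4 mM vs AMP background separates transporter uptake from diffusion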
Description: as §2

[4] = summary comparison CPL207280 vs TAK-875

MRP2, sequence (Q92887 whole entry, the tested form may be a part): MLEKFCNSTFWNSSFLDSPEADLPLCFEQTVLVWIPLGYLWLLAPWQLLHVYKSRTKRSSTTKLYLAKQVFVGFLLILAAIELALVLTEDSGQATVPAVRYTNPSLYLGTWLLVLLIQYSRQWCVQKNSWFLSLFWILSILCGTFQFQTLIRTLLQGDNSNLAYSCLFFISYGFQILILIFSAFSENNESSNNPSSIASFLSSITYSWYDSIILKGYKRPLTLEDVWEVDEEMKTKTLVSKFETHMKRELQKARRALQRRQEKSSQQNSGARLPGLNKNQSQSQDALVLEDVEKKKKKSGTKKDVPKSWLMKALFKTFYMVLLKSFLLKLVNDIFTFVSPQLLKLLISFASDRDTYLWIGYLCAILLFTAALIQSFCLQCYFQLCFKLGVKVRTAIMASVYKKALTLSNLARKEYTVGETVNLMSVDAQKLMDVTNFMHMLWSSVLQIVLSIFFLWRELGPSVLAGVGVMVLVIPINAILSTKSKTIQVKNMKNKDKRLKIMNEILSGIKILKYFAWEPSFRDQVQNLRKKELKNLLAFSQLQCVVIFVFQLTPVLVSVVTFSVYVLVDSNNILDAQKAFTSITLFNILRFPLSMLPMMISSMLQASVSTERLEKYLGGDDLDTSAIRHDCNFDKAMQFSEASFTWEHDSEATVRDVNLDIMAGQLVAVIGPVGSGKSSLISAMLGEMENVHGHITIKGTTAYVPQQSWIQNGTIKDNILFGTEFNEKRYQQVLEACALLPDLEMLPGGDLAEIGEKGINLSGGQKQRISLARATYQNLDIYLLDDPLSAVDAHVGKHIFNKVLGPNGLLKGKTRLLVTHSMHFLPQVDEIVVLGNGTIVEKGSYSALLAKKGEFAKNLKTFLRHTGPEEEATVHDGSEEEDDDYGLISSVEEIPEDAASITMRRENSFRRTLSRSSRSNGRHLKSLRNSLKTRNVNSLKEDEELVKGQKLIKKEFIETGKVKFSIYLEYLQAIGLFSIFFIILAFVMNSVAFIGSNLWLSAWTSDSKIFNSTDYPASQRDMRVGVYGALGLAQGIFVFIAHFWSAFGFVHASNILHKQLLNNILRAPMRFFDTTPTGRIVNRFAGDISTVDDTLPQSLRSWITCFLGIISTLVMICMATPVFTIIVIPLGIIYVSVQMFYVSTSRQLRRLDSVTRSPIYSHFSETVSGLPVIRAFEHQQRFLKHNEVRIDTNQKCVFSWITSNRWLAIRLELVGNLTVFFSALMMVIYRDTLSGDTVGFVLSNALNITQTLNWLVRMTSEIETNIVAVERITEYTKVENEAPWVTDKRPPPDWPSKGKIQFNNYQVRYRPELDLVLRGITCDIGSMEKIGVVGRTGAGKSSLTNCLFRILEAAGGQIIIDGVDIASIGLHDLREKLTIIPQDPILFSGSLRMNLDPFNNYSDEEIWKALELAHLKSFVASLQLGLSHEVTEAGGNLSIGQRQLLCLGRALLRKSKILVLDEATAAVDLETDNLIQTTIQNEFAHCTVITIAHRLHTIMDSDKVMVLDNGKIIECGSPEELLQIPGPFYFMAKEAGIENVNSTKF
BSEP, sequence (O95342 whole entry, the tested form may be a part): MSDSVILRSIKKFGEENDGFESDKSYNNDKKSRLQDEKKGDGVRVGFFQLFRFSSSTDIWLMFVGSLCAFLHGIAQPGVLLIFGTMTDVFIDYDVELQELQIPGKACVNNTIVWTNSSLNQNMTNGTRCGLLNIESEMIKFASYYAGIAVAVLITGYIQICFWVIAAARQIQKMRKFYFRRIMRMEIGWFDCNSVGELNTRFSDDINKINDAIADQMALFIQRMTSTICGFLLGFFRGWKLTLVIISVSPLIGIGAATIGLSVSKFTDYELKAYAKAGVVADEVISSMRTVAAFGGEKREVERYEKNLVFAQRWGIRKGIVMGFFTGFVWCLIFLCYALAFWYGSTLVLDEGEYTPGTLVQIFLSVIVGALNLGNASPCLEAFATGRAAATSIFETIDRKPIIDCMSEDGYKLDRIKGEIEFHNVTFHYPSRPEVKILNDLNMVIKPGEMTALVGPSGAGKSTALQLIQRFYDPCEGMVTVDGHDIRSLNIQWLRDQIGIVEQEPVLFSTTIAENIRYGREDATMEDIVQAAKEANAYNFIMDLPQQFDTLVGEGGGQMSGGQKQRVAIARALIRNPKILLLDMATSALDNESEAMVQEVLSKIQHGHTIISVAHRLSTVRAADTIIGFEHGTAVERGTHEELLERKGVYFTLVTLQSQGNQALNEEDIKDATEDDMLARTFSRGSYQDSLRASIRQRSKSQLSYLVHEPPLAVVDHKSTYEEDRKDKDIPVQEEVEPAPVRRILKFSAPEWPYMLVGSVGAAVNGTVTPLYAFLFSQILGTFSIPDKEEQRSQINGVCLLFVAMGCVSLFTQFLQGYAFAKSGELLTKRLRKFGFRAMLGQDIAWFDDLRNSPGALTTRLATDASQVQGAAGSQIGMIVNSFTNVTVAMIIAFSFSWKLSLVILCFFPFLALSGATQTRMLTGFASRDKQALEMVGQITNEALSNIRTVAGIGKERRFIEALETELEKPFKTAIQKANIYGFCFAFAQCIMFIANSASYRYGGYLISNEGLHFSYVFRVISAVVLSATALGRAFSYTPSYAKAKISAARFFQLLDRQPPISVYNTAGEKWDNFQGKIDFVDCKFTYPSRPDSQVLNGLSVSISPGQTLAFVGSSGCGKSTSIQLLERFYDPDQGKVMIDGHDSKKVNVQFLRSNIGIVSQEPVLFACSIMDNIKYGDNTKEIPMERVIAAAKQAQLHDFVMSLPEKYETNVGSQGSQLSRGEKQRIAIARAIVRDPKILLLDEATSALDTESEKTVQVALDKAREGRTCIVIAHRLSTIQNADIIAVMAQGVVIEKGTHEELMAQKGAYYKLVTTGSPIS

Compound: CC#C[C@@H](CC(=O)O)c1ccc(OCC(C)=C(C)C)cc1 [CPL207280]
- Vd ([1]; rat, plasma, rats, 3 mg/kg): 0.2 ± 0.01 L/kg
- k el ([1]; rat, plasma, rats, 3 mg/kg): 0.000144 s⁻¹
- greater Kel than TAK-875 ([1]; rats, 3 mg/kg): 2 x
- Bioavailability in rats [1, 4]: >
- Exposure in rat plasma for the same dose [1, 4]: ≥
- Accumulation in rat plasma after repeat dose (in vivo): No
- Cmax at 14 days (in vivo; both sexes, Wistar Han, rat, 1200 mg/kg, Cmax): 250 µg/mL
- Cmax (in vivo; both sexes, Wistar Han, rat, po, 150 mg/kg, Cmax): 125 µg/mL
- AUC(0-t) (in vivo; both sexes, Wistar Han, rat, po, 300 mg/kg/day): 2350 µg·h/mL
- Cmax (in vivo; both sexes, Wistar Han, rat, po, 300 mg/kg/day, Cmax (Mean)): 227 µg/mL
- AUC(0-t) (in vivo; both sexes, Wistar Han, rat, po, 600 mg/kg/day): 2920 µg·h/mL
- Cmax (in vivo; both sexes, Wistar Han, rat, po, 600 mg/kg/day, Cmax (Mean)): 257 µg/mL
- Cmax (in vivo; both sexes, Wistar Han, rat, po, 1200 mg/kg, Cmax): 222 µg/mL
- AUC (in vivo; both sexes, Wistar Han, rat, po, 1200 mg/kg, exposure - AUC): 2590 µg·h/mL
- AUC24h (Mean) (in vivo; Wistar Han, rat, po, 300 mg/kg/day): 1605030 ng x hr/mL
- AUC24h (Mean) (in vivo; Wistar Han, rat, po, 600 mg/kg/day): 2156620 ng x hr/mL
- viability at 48 h, 0.78 µM ([2]; 0.78 uM): 109%
- viability at 48 h, 3.125 µM ([2]; 3.125 uM): 111%
- viability at 48 h, 6.25 µM ([2]; 6.25 uM): 108%
- viability at 48 h, 25 µM ([2]; 25 uM): 107%
- viability at 48 h, 50 µM ([2]; 50 uM): 94.1%
- viability at 48 h, 100 µM ([2]; 100 uM): 80.6%
- viability ([3]; human primary hepatocytes, 48 h, concentrations up to 10 μM): Neither compound exhibited altered viability
- reduction of viability ([3]; primary cells, 48 h, 100 μM): 20%
- viability, normalized to DMSO-treated controls ([3]; 48 h, 0.78 uM): 113.603 and 101.249
- viability, normalized to DMSO-treated controls ([3]; 48 h, 3.125 uM): 114.319 and 102.513
- viability, normalized to DMSO-treated controls ([3]; 48 h, 6.25 uM): 112.73 and 100.537
- viability, normalized to DMSO-treated controls ([3]; 48 h, 25 uM): 106.605 and 99.5091
- viability, normalized to DMSO-treated controls ([3]; 48 h, 50 uM): 95.5759 and 86.1766
- viability, normalized to DMSO-treated controls ([3]; 48 h, 100 uM): 81.3191 and 75.1172
- Toxicity for human hepatocytes [3, 4]: <
- Accumulation (counts per minute; CPM) HEK293-BSEP (BSEP; conc 0.41 µM): 13312 CPM and 13786 CPM and 14638 CPM
- Accumulation (counts per minute; CPM) HEK293-MOCK (BSEP; conc 0.41 µM): 373 CPM and 338 CPM and 317 CPM
- Accumulation (counts per minute; CPM) HEK293-BSEP (BSEP; conc 1.23 µM): 14288 CPM and 14991 CPM and 14336 CPM
- Accumulation (counts per minute; CPM) HEK293-MOCK (BSEP; conc 1.23 µM): 402 CPM and 297 CPM and 306 CPM
- Accumulation (counts per minute; CPM) HEK293-BSEP (BSEP; conc 3.70 µM): 14804 CPM and 15510 CPM and 14684 CPM
- Accumulation (counts per minute; CPM) HEK293-MOCK (BSEP; conc 3.70 µM): 350 CPM and 288 CPM and 349 CPM
- Accumulation (counts per minute; CPM) HEK293-BSEP (BSEP; conc 11.11 µM): 14585 CPM and 13490 CPM and 14701 CPM
- Accumulation (counts per minute; CPM) HEK293-MOCK (BSEP; conc 11.11 µM): 382 CPM and 355 CPM and 370 CPM
- Accumulation (counts per minute; CPM) HEK293-BSEP (BSEP; conc 33.33 µM): 14312 CPM and 13194 CPM and 13689 CPM
- Accumulation (counts per minute; CPM) HEK293-MOCK (BSEP; conc 33.33 µM): 426 CPM and 364 CPM and 386 CPM
- Accumulation (counts per minute; CPM) HEK293-BSEP (BSEP; conc 100 µM): 10784 CPM and 11964 CPM and 11554 CPM
- Accumulation (counts per minute; CPM) HEK293-MOCK (BSEP; conc 100 µM): 273 CPM and 371 CPM
- Accumulation (counts per minute; CPM) with AMP (MRP2; conc 0.10 µM): 198 CPM and 164 CPM
- Accumulation (counts per minute; CPM) with ATP (MRP2; conc 0.10 µM): 2936 CPM and 2989 CPM
- Accumulation (counts per minute; CPM) with AMP (MRP2; conc 1.00 µM): 160 CPM and 140 CPM
- Accumulation (counts per minute; CPM) with ATP (MRP2; conc 1.00 µM): 2976 CPM and 3333 CPM
- Accumulation (counts per minute; CPM) with AMP (MRP2; conc 3.00 µM): 225 CPM and 205 CPM
- Accumulation (counts per minute; CPM) with ATP (MRP2; conc 3.00 µM): 3200 CPM and 3253 CPM
- Accumulation (counts per minute; CPM) with AMP (MRP2; conc 10.00 µM): 218 CPM and 206 CPM
- Accumulation (counts per minute; CPM) with ATP (MRP2; conc 10.00 µM): 3353 CPM and 3206 CPM
- Accumulation (counts per minute; CPM) with AMP (MRP2; conc 30.00 µM): 203 CPM and 192 CPM
- Accumulation (counts per minute; CPM) with ATP (MRP2; conc 30.00 µM): 3191 CPM and 3541 CPM
- Accumulation (counts per minute; CPM) with AMP (MRP2; conc 100.00 µM): 195 CPM and 185 CPM
- Accumulation (counts per minute; CPM) with ATP (MRP2; conc 100.00 µM): 3680 CPM and 3660 CPM
- Accumulation (counts per minute; CPM) with AMP (MRP2; conc 300.00 µM): 129 CPM and 125 CPM
- Accumulation (counts per minute; CPM) with ATP (MRP2; conc 300.00 µM): 3852 CPM and 4100 CPM
- MRP2 Estimated IC50 (95% CI of IC50) (MRP2; vesicles, up to 300μM, n = 2): no affinity
